The values below come from ChEMBL document CHEMBL1155121, “4-Hydroxy-5-pyrrolinone-3-carboxamide HIV-1 integrase inhibitors” (Bioorg Med Chem Lett, 2008).

SMILES strings stand for the structures. The source made the active and inactive calls. The rule behind the calls is not given here.

The test system of one data set is MT4. The data set is described as follows: Cytotoxicity against human MT4 cells up to 20 uM. It counts as cell-based.
The target of data set [1] is Human immunodeficiency virus type 1 integrase (Human immunodeficiency virus 1, UniProt Q7ZJM1). The data set is described as follows: Inhibition of recombinant HIV1 integrase strand transfer activity.
Data set [2] has as its system Human immunodeficiency virus 1. The data set is described as follows: Antiviral activity against HIV1 in human MT4 cells at 25 uM. The format is functional.
For another data set, the system named is Plasma. In words: Fraction unbound in human plasma. It counts as ADME, cell-free.

Chain of Human immunodeficiency virus type 1 integrase (Q7ZJM1 whole entry): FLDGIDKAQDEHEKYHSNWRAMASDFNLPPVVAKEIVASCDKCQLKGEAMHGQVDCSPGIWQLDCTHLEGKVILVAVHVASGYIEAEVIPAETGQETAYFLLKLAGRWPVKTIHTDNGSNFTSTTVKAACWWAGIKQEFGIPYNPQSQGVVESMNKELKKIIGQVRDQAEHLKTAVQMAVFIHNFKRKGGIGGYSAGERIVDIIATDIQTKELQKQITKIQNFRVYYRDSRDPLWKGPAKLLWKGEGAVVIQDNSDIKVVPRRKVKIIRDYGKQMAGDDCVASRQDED

`O=C(NCc1ccc(F)cc1)C1=C(O)C(=O)N(CCN2CCOCC2)C1C(=O)NCc1ccc(F)cc1` (stereo not drawn): in the data set with MT4, the Activity entry is reported as “Not Active”. Besides, in data set [1], the IC50 is greater than 1000 nM. Also, the result in data set [2] was inactive.
Take `O=C(NCc1ccc(F)cc1)C1=C(O)C(=O)N2CCCCC12` (stereo not drawn): the results for the Activity result (in the data set on MT4; in data set [2]) were “Not Active” and 35%, respectively. Moreover, the IC50 in data set [1] came out at 18 nM.
On the same counts, the results for `COc1ccccc1CCN1CC(C(=O)NCc2ccc(F)cc2)=C(O)C1=O` are “Not Active”, “inactive” and 4 nM.
On the same counts, the results for `Cc1cccc(CN2CC(C(=O)NCc3ccc(F)cc3)=C(O)C2=O)c1` are “Not Active”, “inactive” and 6 nM.
On the same counts, the results for `O=C(NCc1ccc(F)cc1)C1=C(O)C(=O)N(Cc2ccccc2)C1` are “Not Active”, “inactive” and 100 nM.
On to `O=C(NCc1ccc(F)cc1)C1=C(O)C(=O)N(CCN2CCCCC2)C1`, for which the Activity result in the data set on MT4 is given as “Not Active”. Also, in data set [1], the IC50 was greater than 1000 nM. For the same molecule, in data set [2], the result was inactive.
In the same order, the values of `O=C(NCc1ccc(F)cc1)C1=C(O)C(=O)N(CCCc2ccccc2)C1` are “Not Active”, 5 nM and “inactive”.
For the molecule `O=C(NCc1ccc(F)cc1)C1=C(O)C(=O)N(Cc2ccccn2)C1`, the Activity result in the data set with MT4 is reported as “Not Active”. The IC50 in data set [1] came out at 94 nM. The same molecule had a Fu in the data set on Plasma of less than 1%. In addition, the result in data set [2] was inactive.
As for `CN1C(=O)C(O)=C(C(=O)NCc2ccc(F)cc2)C1c1ccccc1` (stereo not drawn), in the data set on MT4, the Activity entry is recorded as “Not Active”. Also, in data set [1], the IC50 was greater than 1000 nM. The result in data set [2] was inactive.
